Data taken from patent US10206394B2, “Herbicidal compounds” (Syngenta Participations AG, priority 2014, dated 2019).
Read-outs that look alike come from different tables or passages of the source.

Legend:
Assay in all cases: Glasshouse assay for herbicidal activity (pre- and post-emergence), percentage phytotoxicity
Format in all cases: in vivo
[1] = test system: Echinochloa crus-galli (ECHCG); settings: for pest or weed control at 250 g/ha: Echinochloa crus-galli
How it was run: (§1)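 Damage was rated visually as percent phytotoxicity, 100% meaning total kill, 20 days after pre-emergence application (made one day post-sowing) or 15 days after post-emergence application (made about 12 days post-sowing). Plants were grown under 16 h light, 65% humidity, warm species 24/18° C, cool 20/16° C.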

[2] = test system: Lolium perenne (LOLPE); settings: for pest or weed control at 250 g/ha: Lolium perenne
How it was run: as §1

[3] = test system: Avena fatua (AVEFA); settings: for pest or weed control at 250 g/ha: Avena fatua
How it was run: as §1

[4] = test system: Alopecurus myosuroides (ALOMY); settings: for pest or weed control at 250 g/ha: Alopecurus myosuroides
How it was run: as §1

[5] = post-emergence, 360 h, Rate 250 g/ha, post-emergence, assessed visually 15 DAA, 100%=total damage, 0%=no damage, read-out: Post-emergence herbicidal activity (percentage phytotoxicity) ECHCG POST
[6] = pre-emergence, 480 h, Rate 250 g/ha, pre-emergence, assessed visually 20 DAA, 100%=total damage, 0%=no damage, read-out: Pre-emergence herbicidal activity (percentage phytotoxicity) ECHCG PRE
[7] = post-emergence, 360 h, Rate 250 g/ha, post-emergence, assessed visually 15 DAA, 100%=total damage, 0%=no damage, read-out: Post-emergence herbicidal activity (percentage phytotoxicity) LOLPE POST
[8] = pre-emergence, 480 h, Rate 250 g/ha, pre-emergence, assessed visually 20 DAA, 100%=total damage, 0%=no damage, read-out: Pre-emergence herbicidal activity (percentage phytotoxicity) LOLPE PRE
[9] = post-emergence, 360 h, Rate 250 g/ha, post-emergence, assessed visually 15 DAA, 100%=total damage, 0%=no damage, read-out: Post-emergence herbicidal activity (percentage phytotoxicity) AVEFA POST
[10] = pre-emergence, 480 h, Rate 250 g/ha, pre-emergence, assessed visually 20 DAA, 100%=total damage, 0%=no damage, read-out: Pre-emergence herbicidal activity (percentage phytotoxicity) AVEFA PRE
[11] = post-emergence, 360 h, Rate 250 g/ha, post-emergence, assessed visually 15 DAA, 100%=total damage, 0%=no damage, read-out: Post-emergence herbicidal activity (percentage phytotoxicity) ALOMY POST
[12] = pre-emergence, 480 h, Rate 250 g/ha, pre-emergence, assessed visually 20 DAA, 100%=total damage, 0%=no damage, read-out: Pre-emergence herbicidal activity (percentage phytotoxicity) ALOMY PRE
[13] = post-emergence, 360 h, 250 g/ha, post-emergence, 15 DAA, visual assessment (100%=total damage, 0%=no damage), read-out: Post-emergence herbicidal activity (percentage phytotoxicity) ECHCG POST
[14] = pre-emergence, 480 h, 250 g/ha, pre-emergence, 20 DAA, visual assessment (100%=total damage, 0%=no damage), read-out: Pre-emergence herbicidal activity (percentage phytotoxicity) ECHCG PRE
[15] = post-emergence, 360 h, 250 g/ha, post-emergence, 15 DAA, visual assessment (100%=total damage, 0%=no damage), read-out: Post-emergence herbicidal activity (percentage phytotoxicity) LOLPE POST
[16] = pre-emergence, 480 h, 250 g/ha, pre-emergence, 20 DAA, visual assessment (100%=total damage, 0%=no damage), read-out: Pre-emergence herbicidal activity (percentage phytotoxicity) LOLPE PRE
[17] = post-emergence, 360 h, 250 g/ha, post-emergence, 15 DAA, visual assessment (100%=total damage, 0%=no damage), read-out: Post-emergence herbicidal activity (percentage phytotoxicity) AVEFA POST
[18] = pre-emergence, 480 h, 250 g/ha, pre-emergence, 20 DAA, visual assessment (100%=total damage, 0%=no damage), read-out: Pre-emergence herbicidal activity (percentage phytotoxicity) AVEFA PRE
[19] = post-emergence, 360 h, 250 g/ha, post-emergence, 15 DAA, visual assessment (100%=total damage, 0%=no damage), read-out: Post-emergence herbicidal activity (percentage phytotoxicity) ALOMY POST
[20] = pre-emergence, 480 h, 250 g/ha, pre-emergence, 20 DAA, visual assessment (100%=total damage, 0%=no damage), read-out: Pre-emergence herbicidal activity (percentage phytotoxicity) ALOMY PRE
[21] = Rate 250 g/ha, post-emergence, assessed visually 15 DAA, 100%=total damage, 0%=no damage
[22] = Rate 250 g/ha, pre-emergence, assessed visually 20 DAA, 100%=total damage, 0%=no damage

Row | SMILES | pest or weed control at 250 g/ha [1, 5] [%] | pest or weed control at 250 g/ha [1, 6] [%] | pest or weed control at 250 g/ha [2, 7] [%] | pest or weed control at 250 g/ha [2, 8] [%] | pest or weed control at 250 g/ha [3, 9] [%] | pest or weed control at 250 g/ha [3, 10] [%] | pest or weed control at 250 g/ha [4, 11] [%] | pest or weed control at 250 g/ha [4, 12] [%] | pest or weed control at 250 g/ha [1, 13] [%] | pest or weed control at 250 g/ha [1, 14] [%] | pest or weed control at 250 g/ha [2, 15] [%] | pest or weed control at 250 g/ha [2, 16] [%] | pest or weed control at 250 g/ha [3, 17] [%] | pest or weed control at 250 g/ha [3, 18] [%] | pest or weed control at 250 g/ha [4, 19] [%] | pest or weed control at 250 g/ha [4, 20] [%] | other results
1 | Cc1cc(-c2ncc(Cl)cc2F)cc(C)c1C1C(=O)CC(CC(=O)NCc2cccc(Cl)c2)C1=O (stereo not drawn) [Compound A117] | 100 | 100 | 100 | 90 | 100 | 70 | 90 | 70 | – | – | – | – | – | – | – | – | –
2 | C=C(C)CNC(=O)CC1CC(=O)C(c2c(C)cc(-c3ncc(Br)cn3)cc2C)C1=O (stereo not drawn) [Compound B283] | – | – | – | – | – | – | – | – | – | – | – | – | – | – | – | – | pest or weed control at 250 g/ha ([1]; post-emergence, 360 h, POST-emergence, rate 250 g/ha, visual score 15 DAA (100%=total damage, 0%=no damage), read-out: Post-emergence herbicidal activity (percentage phytotoxicity) ECHCG POST): 100%; pest or weed control at 250 g/ha ([1]; pre-emergence, 480 h, PRE-emergence, rate 250 g/ha, visual score 20 DAA (100%=total damage, 0%=no damage), read-out: Pre-emergence herbicidal activity (percentage phytotoxicity) ECHCG PRE): 100%; pest or weed control at 250 g/ha ([2]; post-emergence, 360 h, POST-emergence, rate 250 g/ha, visual score 15 DAA (100%=total damage, 0%=no damage), read-out: Post-emergence herbicidal activity (percentage phytotoxicity) LOLPE POST): 100%; pest or weed control at 250 g/ha ([2]; pre-emergence, 480 h, PRE-emergence, rate 250 g/ha, visual score 20 DAA (100%=total damage, 0%=no damage), read-out: Pre-emergence herbicidal activity (percentage phytotoxicity) LOLPE PRE): 100%; pest or weed control at 250 g/ha ([3]; post-emergence, 360 h, POST-emergence, rate 250 g/ha, visual score 15 DAA (100%=total damage, 0%=no damage), read-out: Post-emergence herbicidal activity (percentage phytotoxicity) AVEFA POST): 100%; pest or weed control at 250 g/ha ([3]; pre-emergence, 480 h, PRE-emergence, rate 250 g/ha, visual score 20 DAA (100%=total damage, 0%=no damage), read-out: Pre-emergence herbicidal activity (percentage phytotoxicity) AVEFA PRE): 90%; pest or weed control at 250 g/ha ([4]; post-emergence, 360 h, POST-emergence, rate 250 g/ha, visual score 15 DAA (100%=total damage, 0%=no damage), read-out: Post-emergence herbicidal activity (percentage phytotoxicity) ALOMY POST): 100%; pest or weed control at 250 g/ha ([4]; pre-emergence, 480 h, PRE-emergence, rate 250 g/ha, visual score 20 DAA (100%=total damage, 0%=no damage), read-out: Pre-emergence herbicidal activity (percentage phytotoxicity) ALOMY PRE): 100%
3 | Cc1cc(Br)cc(C)c1C1C(=O)CC(CC(=O)NCC2CC2C(F)F)C1=O (stereo not drawn) [Compound B142] | – | – | – | – | – | – | – | – | 80 | 0 | 90 | 70 | 90 | 70 | 90 | 90 | –
4 | Cc1cc(-c2cnc(Cl)cn2)cc(C)c1C1C(=O)CC(CC(=O)NCc2cccc(C(F)(F)F)c2)C1=O (stereo not drawn) [Compound A149] | – | – | – | – | – | – | – | – | – | – | – | – | – | – | – | – | Post-emergence herbicidal activity (percentage phytotoxicity) ECHCG POST [1, 21]: 100%; Pre-emergence herbicidal activity (percentage phytotoxicity) ECHCG PRE [1, 22]: 100%; Post-emergence herbicidal activity (percentage phytotoxicity) LOLPE POST [2, 21]: 100%; Pre-emergence herbicidal activity (percentage phytotoxicity) LOLPE PRE [2, 22]: 90%; Post-emergence herbicidal activity (percentage phytotoxicity) AVEFA POST [3, 21]: 100%; Pre-emergence herbicidal activity (percentage phytotoxicity) AVEFA PRE [3, 22]: 100%; Post-emergence herbicidal activity (percentage phytotoxicity) ALOMY POST [4, 21]: 100%; Pre-emergence herbicidal activity (percentage phytotoxicity) ALOMY PRE [4, 22]: 80%
5 | COCC(C)NC(=O)CC1CC(=O)C(c2c(C)cc(-c3ncc(Cl)cc3F)cc2C)C1=O (stereo not drawn) [Compound B121] | – | – | – | – | – | – | – | – | 100 | 100 | 100 | 100 | 100 | 90 | 100 | 100 | –
6 | Cc1cc(-c2ncc(Cl)cc2F)cc(C)c1C1C(=O)CC(CC(=O)NC(C)c2ccc(F)cc2)C1=O (stereo not drawn) [Compound A124] | 100 | 90 | 100 | 90 | 100 | 80 | 90 | 70 | – | – | – | – | – | – | – | – | –
